This note sets out measurements from publication PMC8256712, “Crystal structures of Aspergillus oryzae Rib2 deaminase: the functional mechanism involved in riboflavin biosynthesis” (IUCrJ, 2021).

One experiment addresses T1, AoRib2 (Aspergillus oryzae, UniProt Q2UFA9).
T1 construct: gene rib2; full length, 222 residues; monomer
T1 sequence (Q2UFA9 1-222): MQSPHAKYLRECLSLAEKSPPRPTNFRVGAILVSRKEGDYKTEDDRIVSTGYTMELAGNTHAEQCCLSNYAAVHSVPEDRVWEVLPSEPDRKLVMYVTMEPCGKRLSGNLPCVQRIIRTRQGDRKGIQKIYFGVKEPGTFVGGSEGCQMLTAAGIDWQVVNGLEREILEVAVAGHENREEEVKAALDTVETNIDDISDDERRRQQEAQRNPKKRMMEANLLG
The experiment in a line: deaminase assay, fluorescence after diacetyl modification. It is filed as biochemical. The settings on record: 310 K, 30 min; DARIPP made enzymatically in situ from GTP.

A further experiment deals with T2, AoRib2_188 (Aspergillus oryzae, UniProt Q2UFA9).
T2 construct: gene rib2; deaminase domain, residues 1-188 of 222, C-terminal segment deleted; Zn ligands His61, Cys102, Cys112, general base Glu63
T2 sequence (Q2UFA9 1-188): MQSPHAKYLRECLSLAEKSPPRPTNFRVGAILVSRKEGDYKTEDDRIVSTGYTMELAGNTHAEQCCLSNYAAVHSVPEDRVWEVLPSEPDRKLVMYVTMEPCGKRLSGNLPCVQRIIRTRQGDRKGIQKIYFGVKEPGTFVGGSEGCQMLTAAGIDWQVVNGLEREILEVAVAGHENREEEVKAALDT
The experiment in a line: X-ray crystal structure, soaked, […] A. The format is binding. The settings on record: crystals pH 6.5 (MES), soaked 20 min in 50-100 mM DARIPP; active site with Zn2+.

On to `Nc1nc(NC[C@H](O)[C@H](O)[C@H](O)COP(=O)(O)O)c(N)c(=O)[nH]1` [DARIPP, 2,5-diamino-6-ribitylamino-4(3H)-pyrimidinone 5′-phosphate], for which the “deaminase assay, fluorescence after diacetyl modification” value at AoRib2 is “the recombinant protein is able to catalyze the conversion of DARIPP to ARIPP”. In addition, at AoRib2_188, the “X-ray crystal structure, soaked, 1.58 A” value is “DARIPP could be built nicely into strong electron density and is firmly embedded in the active site”.
